Source: PubChem BioAssay AID1259407 (Chemical Carcinogenesis Research Information System (CCRIS), 2018)
Active and inactive are the calls of the source. No rule for the calls is given here.

System: CCRIS mutagenicity, Ames/micronucleus/aberration tests
Experiment: CCRIS mutagenicity studies
[1] = Test System: AMES SALMONELLA TYPHIMURIUM, Strain/Indicator: TA98, Metabolic Activation: HAMSTER, LIVER, S-9, AROCLOR 1254 (10%), Method: PREINCUBATION
[2] = Test System: AMES SALMONELLA TYPHIMURIUM, Strain/Indicator: TA98, Metabolic Activation: NONE, Method: PREINCUBATION
[3] = Test System: AMES SALMONELLA TYPHIMURIUM, Strain/Indicator: TA98, Metabolic Activation: RAT, LIVER, S-9, AROCLOR 1254 (10%), Method: PREINCUBATION
[4] = Test System: AMES SALMONELLA TYPHIMURIUM, Strain/Indicator: TA100, Metabolic Activation: HAMSTER, LIVER, S-9, AROCLOR 1254 (10%), Method: PREINCUBATION
[5] = Test System: AMES SALMONELLA TYPHIMURIUM, Strain/Indicator: TA100, Metabolic Activation: NONE, Method: PREINCUBATION
[6] = Test System: AMES SALMONELLA TYPHIMURIUM, Strain/Indicator: TA100, Metabolic Activation: RAT, LIVER, S-9, AROCLOR 1254 (10%), Method: PREINCUBATION
[7] = Test System: AMES SALMONELLA TYPHIMURIUM, Strain/Indicator: TA1535, Metabolic Activation: HAMSTER, LIVER, S-9, AROCLOR 1254 (10%), Method: PREINCUBATION
[8] = Test System: AMES SALMONELLA TYPHIMURIUM, Strain/Indicator: TA1535, Metabolic Activation: NONE, Method: PREINCUBATION
[9] = Test System: AMES SALMONELLA TYPHIMURIUM, Strain/Indicator: TA1535, Metabolic Activation: RAT, LIVER, S-9, AROCLOR 1254 (10%), Method: PREINCUBATION
[10] = Test System: AMES SALMONELLA TYPHIMURIUM, Strain/Indicator: TA1537, Metabolic Activation: NONE, Method: PREINCUBATION
[11] = Test System: AMES SALMONELLA TYPHIMURIUM, Strain/Indicator: TA98, Metabolic Activation: NONE, Method: STANDARD PLATE
[12] = Test System: AMES SALMONELLA TYPHIMURIUM, Strain/Indicator: TA100, Metabolic Activation: NONE, Method: STANDARD PLATE

Measured: mutagenic call

CCCCCCC=O
inactive: Test System: AMES SALMONELLA TYPHIMURIUM, Strain/Indicator: TA97, Metabolic Activation: HAMSTER, LIVER, S-9, AROCLOR 1254 (10%), Method: PREINCUBATION inactive; negative | Test System: AMES SALMONELLA TYPHIMURIUM, Strain/Indicator: TA97, Metabolic Activation: HAMSTER, LIVER, S-9, AROCLOR 1254 (30%), Method: PREINCUBATION inactive; negative | Test System: AMES SALMONELLA TYPHIMURIUM, Strain/Indicator: TA97, Metabolic Activation: NONE, Method: PREINCUBATION inactive; negative | Test System: AMES SALMONELLA TYPHIMURIUM, Strain/Indicator: TA97, Metabolic Activation: RAT, LIVER, S-9, AROCLOR 1254 (10%), Method: PREINCUBATION inactive; negative | Test System: AMES SALMONELLA TYPHIMURIUM, Strain/Indicator: TA97, Metabolic Activation: RAT, LIVER, S-9, AROCLOR 1254 (30%), Method: PREINCUBATION inactive; negative | [1] inactive; negative | Test System: AMES SALMONELLA TYPHIMURIUM, Strain/Indicator: TA98, Metabolic Activation: HAMSTER, LIVER, S-9, AROCLOR 1254 (30%), Method: PREINCUBATION inactive; negative | [2] inactive; negative | [3] inactive; negative | Test System: AMES SALMONELLA TYPHIMURIUM, Strain/Indicator: TA98, Metabolic Activation: RAT, LIVER, S-9, AROCLOR 1254 (30%), Method: PREINCUBATION inactive; negative | [4] inactive; negative | Test System: AMES SALMONELLA TYPHIMURIUM, Strain/Indicator: TA100, Metabolic Activation: HAMSTER, LIVER, S-9, AROCLOR 1254 (30%), Method: PREINCUBATION inactive; negative | [5] inactive; negative | [6] inactive; negative | Test System: AMES SALMONELLA TYPHIMURIUM, Strain/Indicator: TA100, Metabolic Activation: RAT, LIVER, S-9, AROCLOR 1254 (30%), Method: PREINCUBATION inactive; negative | [7] inactive; negative | Test System: AMES SALMONELLA TYPHIMURIUM, Strain/Indicator: TA1535, Metabolic Activation: HAMSTER, LIVER, S-9, AROCLOR 1254 (30%), Method: PREINCUBATION inactive; negative | [8] inactive; negative | [9] inactive; negative | Test System: AMES SALMONELLA TYPHIMURIUM, Strain/Indicator: TA1535, Metabolic Activation: RAT, LIVER, S-9, AROCLOR 1254 (30%), Method: PREINCUBATION inactive; negative | Test System: AMES SALMONELLA TYPHIMURIUM, Strain/Indicator: TA1537, Metabolic Activation: HAMSTER, LIVER, S-9, AROCLOR 1254 (30%), Method: PREINCUBATION inactive; negative | [10] inactive; negative | Test System: AMES SALMONELLA TYPHIMURIUM, Strain/Indicator: TA1537, Metabolic Activation: RAT, LIVER, S-9, AROCLOR 1254 (30%), Method: PREINCUBATION inactive; negative

Cc1cc(N)c(C)c2c1[nH]c1ccc(O)cc12
active: Test System: AMES SALMONELLA TYPHIMURIUM, Strain/Indicator: TA98, Metabolic Activation: RAT LIVER S-9, AROCLOR 1254, Method: STANDARD PLATE active; positive
inactive: [11] inactive; negative | [12] inactive; negative | Test System: AMES SALMONELLA TYPHIMURIUM, Strain/Indicator: TA100, Metabolic Activation: RAT LIVER S-9, AROCLOR 1254, Method: STANDARD PLATE inactive; negative

O=C1c2ccc([N+](=O)[O-])cc2C(=O)N1CCl
active: [2] active; positive | Test System: AMES SALMONELLA TYPHIMURIUM, Strain/Indicator: TA98, Metabolic Activation: RAT, LIVER, S-9, PCB, Method: PREINCUBATION active; positive | [5] active; positive | Test System: AMES SALMONELLA TYPHIMURIUM, Strain/Indicator: TA100, Metabolic Activation: RAT, LIVER, S-9, PCB, Method: PREINCUBATION active; positive

O=C(O)c1cc([N+](=O)[O-])cc2cccnc12
active: [11] active; positive | Test System: AMES SALMONELLA TYPHIMURIUM, Strain/Indicator: TA98, Metabolic Activation: RAT, LIVER, S-9, AROCLOR 1254, Method: STANDARD PLATE active; positive | Test System: AMES SALMONELLA TYPHIMURIUM, Strain/Indicator: TA100, Metabolic Activation: RAT, LIVER, S-9, AROCLOR 1254, Method: STANDARD PLATE active; positive
inactive: [12] inactive; negative | Test System: AMES SALMONELLA TYPHIMURIUM, Strain/Indicator: TA1535, Metabolic Activation: NONE, Method: STANDARD PLATE inactive; negative | Test System: AMES SALMONELLA TYPHIMURIUM, Strain/Indicator: TA1535, Metabolic Activation: RAT, LIVER, S-9, AROCLOR 1254, Method: STANDARD PLATE inactive; negative | Test System: AMES SALMONELLA TYPHIMURIUM, Strain/Indicator: TA1537, Metabolic Activation: NONE, Method: STANDARD PLATE inactive; negative | Test System: AMES SALMONELLA TYPHIMURIUM, Strain/Indicator: TA1537, Metabolic Activation: RAT, LIVER, S-9, AROCLOR 1254, Method: STANDARD PLATE inactive; negative

CCOc1ccc2c(c1)C(C)=CC(C)(C)N2
inactive: [11] inactive; negative | Test System: AMES SALMONELLA TYPHIMURIUM, Strain/Indicator: TA98, Metabolic Activation: S-9, Method: STANDARD PLATE inactive; negative | [12] inactive; negative | Test System: AMES SALMONELLA TYPHIMURIUM, Strain/Indicator: TA100, Metabolic Activation: S-9, Method: STANDARD PLATE inactive; negative

CC(C)(COCC1CO1)COCC1CO1 (centres undefined)
active: [4] active; positive | [5] active; positive | [6] active; positive | [7] active; positive | [8] active; positive | [9] active; positive

O=C(O)c1ccccc1-c1c2ccc(=O)cc-2oc2cc(O)ccc12
inactive: End Point: IN VITRO CHROMOSOMAL ABERRATIONS, Test System: CHO-LB CELLS, Metabolic Activation: NONE inactive; negative | End Point: IN VITRO CHROMOSOMAL ABERRATIONS, Test System: CHO-LB CELLS, Metabolic Activation: RAT, LIVER, S-9, AROCLOR 1254 inactive; negative | [1] inactive; negative | [2] inactive; negative | [3] inactive; negative | [4] inactive; negative | [5] inactive; negative | [6] inactive; negative | [7] inactive; negative | [8] inactive; negative | [9] inactive; negative | Test System: AMES SALMONELLA TYPHIMURIUM, Strain/Indicator: TA1537, Metabolic Activation: HAMSTER, LIVER, S-9, AROCLOR 1254 (10%), Method: PREINCUBATION inactive; negative | [10] inactive; negative | Test System: AMES SALMONELLA TYPHIMURIUM, Strain/Indicator: TA1537, Metabolic Activation: RAT, LIVER, S-9, AROCLOR 1254 (10%), Method: PREINCUBATION inactive; negative

O=S(=O)(O)C1C(O)c2c(cc3ccc4cccc5ccc2c3c45)C(O)C1O (centres undefined)
inactive: [2] inactive; negative
